Two compounds from patent US8911710B2, “Intravascular contrast agents” (Agency for Science, Technology and Research, priority 2008, dated 2014) can be followed below.

This data set can be described thus: Relaxivity measurement (T1 by inversion recovery spin echo in aqueous phantoms, Varian 9.4T MRI system). The class given is physicochemical. Conditions: 25° C., in H2O. As for the experimental part: Relaxivity measurement and MRI were conducted on a Varian 9.4T MRI system (Palo Alto, Calif., USA). T1 was measured by inversion recovery spin echo in aqueous phantoms with concentrations 0.4, 0.2 0.1, 0.05, 0.025, 0.0125 and 0.00625 mM Gd. In vivo study was conducted on Wistar rats (male, weight 320-340 g) under 2% isoflurane anesthesia. CAs were injected (dosage: 0.04 mmol Gd/kg body weight) through tail vein. T1-weighted images were acquired every 6.4 s for 48 min with T1-weighted gradient echo sequence (TR/TE=50/3 ms, flip-angle=20 degree, resolution=[…], thickness=2 mm).

Take `O=C([O-])CN1CCN(CC(=O)[O-])CCN(CC(=O)O)CCN(CC(=O)[O-])CC1.[Gd+3]` [Gd-DOTA]: the “relaxivity r1” value turned out to be 3.9 mM⁻¹ s⁻¹.

Consider `O=C([O-])CN(CCN(CC(=O)[O-])CC(=O)O)CCN(CC(=O)[O-])CC(=O)O.[Gd+3]` [Gd-DTPA], for which the “relaxivity r1” value is 4.1 mM⁻¹ s⁻¹.
